According to patent US20260176267A1, “PREPARATION OF IMIDAZOPYRIDINE AND IMIDAZOPYRIDAZINE DERIVATIVES AS NOVEL DIACYLGLYCERIDE O-ACYLTRANSFERASE 2 INHIBITORS” (Merck Sharp & Dohme LLC, priority 2022, published 2026):

What follows are compounds tested against T1, human DGAT2 (hDGAT2) (Homo sapiens, UniProt Q96PD7) (assay: DGAT2 Enzymatic Activity Assay). Settings: membrane prep of Sf-9 cells expressing hDGAT2; 13C18-triolein product by LC/MS/MS; 25 μM diolein, 5 μM 13C oleoyl-CoA, rt.
T1 construct: made in house; host or cells: Sf-9 insect cells (baculovirus), membrane fraction
T1 sequence (Q96PD7 1-388): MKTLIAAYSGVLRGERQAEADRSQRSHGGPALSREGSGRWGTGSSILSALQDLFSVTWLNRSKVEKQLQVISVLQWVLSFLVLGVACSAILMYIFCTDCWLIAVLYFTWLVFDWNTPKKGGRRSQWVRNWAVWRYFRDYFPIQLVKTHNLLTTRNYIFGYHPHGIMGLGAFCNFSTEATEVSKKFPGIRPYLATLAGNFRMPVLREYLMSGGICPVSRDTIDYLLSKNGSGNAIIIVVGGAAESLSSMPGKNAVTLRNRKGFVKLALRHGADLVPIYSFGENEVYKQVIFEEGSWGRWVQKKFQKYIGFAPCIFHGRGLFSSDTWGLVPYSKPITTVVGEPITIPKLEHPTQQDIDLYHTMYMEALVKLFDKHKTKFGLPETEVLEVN
Format: biochemical
Description: Sf-9 insect cells were maintained in Grace's insect cell culture medium with 10% heated-inactivated fetal bovine serum, 1% Pluronic F-68 and 0.14 μg/ml Kanamycine sulfate at 27° C. in a shaker incubator. After infection with untagged baculovirus expressing human DGAT2 (hDGAT2) at multiplicity of infection (MOI) 3 for 48 hours, cells were harvested. Cell pellets were suspended in buffer containing 10 mM Tris-HCl pH 7.5, 1 mM EDTA, 250 mM sucrose and Complete Protease Inhibitor Cocktail (Sigma Aldrich), and sonicated on ice. Cell debris were removed by centrifugation at 2000×g for 15 minutes. Membrane fractions were isolated by ultracentrifugation (100,000×g), resuspended in the same buffer, and frozen (−80° C.) for later use. The protein concentration was determined with the Pierce™ BCA Protein Assay Kit (Thermo Fisher Scientific).
LC/MS/MS analyses were performed using Thermal Fisher's LX4-TSQ Vantage system. This system consists of an Agilent binary high-performance liquid chromatography (HPLC) pump and a TSQ Vantage triple quadrupole MS/MS instrument. For each sample, 2 μL samples from the top organic layer of in-plate liquid-liquid extraction were injected onto a Thermo Betabasic C4 column (2.1 mm×20 mm, 5 μm particle size). The samples were then eluted using the following conditions; mobile phase: Isopropanol:acetonitrile/10 mM ammonium formate=50/35/15 (v/v/v), flow rate: 0.8 mL/min, temperature: 25° C. Data was acquired in positive mode using a heated electrospray ionization (HESI) interface. The operational parameters for the TSQ Vantage MS/MS instrument were a spray voltage of 3000 V, capillary temperature of 280° C., vaporizer temperature 400° C., sheath gas 45 arbitrary unit. Aux gas 10 arbitrary units. […] The peak area was integrated by Xcalibur Quan software. The ratio between the ^13C18 triolein generated in the reaction and spiked in internal standard ^13C21-triolein was used to generate percentage inhibition and IC50 values. Compound percentage inhibition was calculated by the following formula: Inhibition %=1−[(compound response−low control)/(high control−low control)]×100%.
DGAT2 activity was determined by measuring the amount of enzymatic product ^13C18-triolein (^13C-1,2,3-Tri(cis-9-octadecenoyl)glycerol) using the membrane prep mentioned above. The assay was carried out in ABgene 384-well assay plates in a final volume of 25 μL at rt.

| SMILES | IC50 [nM] |
| --- | --- |
| CC(C)c1cc2nc(C(=O)NC3(C)CCS(=O)(=O)CC3)cn2cc1Oc1ncc(Cl)cc1OCC(F)(F)F [Example 43, 6-[[5-chloro-3-(2,2,2-trifluoroethoxy)-2-pyridyl]oxy]-7-isopropyl-N-(4-methyl-1,1-dioxo-thian-4-yl)imidazo[1,2-a]pyridine-2-carboxamide] | 122 |
| Cc1c(Oc2nccnc2OCC(F)(F)F)cc(F)c2nc(C(=O)NC3(C)CCS(=O)(=O)CC3)cn12 [Example 44, 8-fluoro-5-methyl-N-(4-methyl-1,1-dioxo-thian-4-yl)-6-[3-(2,2,2-trifluoroethoxy)pyrazin-2-yl]oxy-imidazo[1,2-a]pyridine-2-carboxamide] | 68 |
| CCOc1cccnc1Oc1ccc2nc(C(=O)Nc3ccccc3)cn2c1 [Example 45, 6-[(3-ethoxy-2-pyridyl)oxy]-N-phenyl-imidazo[1,2-a]pyridine-2-carboxamide;2,2,2-trifluoroacetate] | 168 |
| Cc1c(Oc2nccnc2OCC(F)F)ccc2nc(C(=O)NC3(C)CCS(=O)(=O)CC3)cn12 [Example 46, 6-[3-(2,2-difluoroethoxy)pyrazin-2-yl]oxy-5-methyl-N-(4-methyl-1,1-dioxo-thian-4-yl)imidazo[1,2-a]pyridine-2-carboxamide] | 42 |
| CC(F)(F)COc1cc(F)cnc1Oc1cn2cc(C(=O)NC3(C)CCS(=O)(=O)CC3)nc2cc1F [Example 47, 6-((3-(2,2-difluoropropoxy)-5-fluoropyridin-2-yl)oxy)-7-fluoro-N-(4-methyl-1,1-dioxidotetrahydro-2H-thiopyran-4-yl)imidazo[1,2-a]pyridine-2-carboxamide] | 8.7 |
| CC(C)c1cc2nc(C(=O)NC3(C)CCS(=O)(=O)CC3)cn2cc1Oc1ncccc1OCC(F)(F)F [Example 48, 7-isopropyl-N-(4-methyl-1,1-dioxo-thian-4-yl)-6-[[3-(2,2,2-trifluoroethoxy)-2-pyridyl]oxy]imidazo[1,2-a]pyridine-2-carboxamide] | 59 |
| CC(C)c1c(Oc2ncc(Cl)cc2OCC(F)(F)F)ccc2nc(C(=O)NC3(C)CCS(=O)(=O)CC3)cn12 [Example 49, 6-[[5-chloro-3-(2,2,2-trifluoroethoxy)-2-pyridyl]oxy]-5-isopropyl-N-(4-methyl-1,1-dioxo-thian-4-yl)imidazo[1,2-a]pyridine-2-carboxamide] | 12 |
| CC1(CNC(=O)c2cn3cc(Oc4ncc(Cl)cc4OCC(F)(F)F)ccc3n2)CCS(=O)(=O)CC1 [Example 50, 6-[[5-chloro-3-(2,2,2-trifluoroethoxy)-2-pyridyl]oxy]-N-[(4-methyl-1,1-dioxo-thian-4-yl)methyl]imidazo[1,2-a]pyridine-2-carboxamide] | 174 |
| O=C(NC1CCOc2c(F)cc(F)cc21)c1cn2cc(Oc3ncccc3OCC(F)(F)F)ccc2n1 (centres unmarked) [Example 51, N-(6,8-difluorochroman-4-yl)-6-[[3-(2,2,2-trifluoroethoxy)-2-pyridyl]oxy]imidazo[1,2-a]pyridine-2-carboxamide] | 123 |
| CCOc1cccnc1Oc1ccc2nc(C(=O)N[C@H]3CCOC3)cn2c1 [Example 52, 6-[(3-ethoxy-2-pyridyl)oxy]-N-[(3S)-tetrahydrofuran-3-yl]imidazo[1,2-a]pyridine-2-carboxamide] | 814 |
| CCOc1cccnc1Oc1ccc2nc(C(=O)NCc3ccccc3)cn2c1 [Example 53, N-benzyl-6-[(3-ethoxy-2-pyridyl)oxy]imidazo[1,2-a]pyridine-2-carboxamide] | 346 |
| CCOc1cccnc1Oc1ccc2nc(C(=O)Nc3cccnc3)cn2c1 [Example 54, 6-[(3-ethoxy-2-pyridyl)oxy]-N-(3-pyridyl)imidazo[1,2-a]pyridine-2-carboxamide] | 850 |
| CC(C)c1c(Oc2ncc(Cl)cc2OCC(F)(F)F)ccc2nc(C(=O)NC3(C)CS(=O)(=O)C3)cn12 [Example 55, 6-[[5-chloro-3-(2,2,2-trifluoroethoxy)-2-pyridyl]oxy]-5-isopropyl-N-(3-methyl-1,1-dioxo-thietan-3-yl)imidazo[1,2-a]pyridine-2-carboxamide] | 89 |
| CC1(NC(=O)c2cn3cc(Oc4ncccc4OCC(F)(F)F)cc(C(F)(F)F)c3n2)CCS(=O)(=O)CC1 [Example 56, N-(4-methyl-1,1-dioxo-thian-4-yl)-6-[[3-(2,2,2-trifluoroethoxy)-2-pyridyl]oxy]-8-(trifluoromethyl)imidazo[1,2-a]pyridine-2-carboxamide] | > 9990 |
| CCOc1cccnc1Oc1ccc2nc(C(=O)Nc3ccc(C)nn3)cn2c1 [Example 57, 6-[(3-ethoxy-2-pyridyl)oxy]-N-(6-methylpyridazin-3-yl)imidazo[1,2-a]pyridine-2-carboxamide] | 1110 |

Results, then the compound that gave them:

| IC50 [nM] | SMILES |
| --- | --- |
| 262 | CCC(F)(F)c1cccnc1Oc1ccc2nc(C(=O)NC3(C)CCS(=O)(=O)CC3)cn2c1 [Example 58, 6-[[3-(1,1-difluoropropyl)-2-pyridyl]oxy]-N-(4-methyl-1,1-dioxo-thian-4-yl)imidazo[1,2-a]pyridine-2-carboxamide] |
| 9 | CCc1cc2nc(C(=O)NC3(C)CCS(=O)(=O)CC3)cn2cc1Oc1ncc(Cl)cc1OCC(F)(F)F [Example 59, 6-((5-Chloro-3-(2,2,2-trifluoroethoxy)pyridin-2-yl)oxy)-7-ethyl-N-(4-methyl-1,1-dioxidotetrahydro-2H-thiopyran-4-yl)imidazo[1,2-a]pyridine-2-carboxamide] |
| > 9990 | CC1(NC(=O)c2cn3cc(Oc4ncccc4O)ccc3n2)CCS(=O)(=O)CC1 [Example 60, 6-[(3-hydroxy-2-pyridyl)oxy]-N-(4-methyl-1,1-dioxo-thian-4-yl)imidazo[1,2-a]pyridine-2-carboxamide] |
| 3 | Cc1c(C(=O)NC2(C)CCS(=O)(=O)CC2)nc2ccc(Oc3ncc(Cl)cc3OCC(F)(F)F)cn12 [Example 61, 6-[[5-chloro-3-(2,2,2-trifluoroethoxy)-2-pyridyl]oxy]-3-methyl-N-(4-methyl-1,1-dioxo-thian-4-yl)imidazo[1,2-a]pyridine-2-carboxamide] |
| 1.5 | Cc1c(C(=O)NC2(CC(F)(F)F)CCS(=O)(=O)CC2)nc2ccc(Oc3ncc(F)cc3OCC(F)F)cn12 [Example 62, 6-[[3-(2,2-difluoroethoxy)-5-fluoro-2-pyridyl]oxy]-N-[1,1-dioxo-4-(2,2,2-trifluoroethyl)thian-4-yl]-3-methyl-imidazo[1,2-a]pyridine-2-carboxamide] |
| 1.7 | Cc1c(C(=O)NC2(C)CCS(=O)(=O)C(C)(C)C2)nc2ccc(Oc3ncc(F)cc3OCC(F)F)cn12 (centres unmarked) [Example 64] |
| 434 | Cc1c(C(=O)NC2(C(C)C)CCS(=O)(=O)CC2)nc2ccc(Oc3ncc(F)cc3OCC(F)F)cn12 [Example 65, 6-[[3-(2,2-difluoroethoxy)-5-fluoro-2-pyridyl]oxy]-N-(4-isopropyl-1,1-dioxo-thian-4-yl)-3-methyl-imidazo[1,2-a]pyridine-2-carboxamide] |
| 0.8 | CCC1(NC(=O)c2nc3ccc(Oc4ncc(F)cc4OCC(F)F)cn3c2C)CCS(=O)(=O)CC1 [Example 66, 6-[[3-(2,2-difluoroethoxy)-5-fluoro-2-pyridyl]oxy]-N-(4-ethyl-1,1-dioxo-thian-4-yl)-3-methyl-imidazo[1,2-a]pyridine-2-carboxamide] |
| 0.8 | Cc1c(C(=O)NC2(C)CCS(=O)(=O)CC2)nc2ccc(Oc3ncc(F)cc3OCC3(F)CC3)cn12 [Example 68] |
| 2 | CCOc1cc(Cl)cnc1Oc1ccc2nc(C(=O)NC3(C)CS(=O)(=O)C3)c(C)n2c1 [Example 69, 6-[(5-chloro-3-ethoxy-2-pyridyl)oxy]-3-methyl-N-(3-methyl-1,1-dioxo-thietan-3-yl)imidazo[1,2-a]pyridine-2-carboxamide] |
| 74.3 | CCC1(NC(=O)c2nc3ccc(Oc4ncc(F)cc4OCC(F)F)cn3c2C)CS(=O)(=O)C1 [Example 70, 6-[[3-(2,2-difluoroethoxy)-5-fluoro-2-pyridyl]oxy]-N-(3-ethyl-1,1-dioxo-thietan-3-yl)-3-methyl-imidazo[1,2-a]pyridine-2-carboxamide] |
